The record followed here is patent US20090209605A1, “NEMATICIDAL COMPOSITIONS” (Devgen N.V., priority 2004, published 2009).

SMILES strings stand for the structures.

Type in all cases: in vivo
The subject of one series is Meloidogyne nematodes. The series is described as follows: Pot Assay 2: Meloidogyne infection of tomato, % infestation of roots. The settings on record: tomato in infested soil. The method, then: The soil used in this assay originated from a plot, heavily infested with Meloidogyne nematodes. Part of this soil was sterilized by autoclaving and was used as negative control. Sandy soil, which was not infested with nematodes, was pursued from a commercial source.
Plastic seedling trays with wells of 60 ml capacity were filled with about 40 ml of soil per well. 5 ml of water per well was used for irrigation.
Compounds as described herein were tested in 4 different rates and with 12 replicates for each concentration. The compounds as described herein were stored as dry films of 4 different concentrations. The day of the application of the compounds, all the dry films were dissolved in 60 ml water and poured into the 12 replicate wells: 5 ml per well. Every tray of 12 wells was identified with a label, indicating compound and concentration used. The 4 final rates in the soil of the tested compound were approximately 0.05 mg, 0.20 mg, 1 mg and 5 mg. These amounts translate to field application rates respectively as 30, 120, 600 and 3000 g per hectare.
3-5 days after application of the tested compound, tomato seeds (cv. Rio Grande) were sown in the wells by hand, at about 2 cm deep. A light cover of vermiculite on the surface was used to avoid dehydration. Plants were irrigated by micro-nebulization 3-4 times per week at a rate of 3 L/m^2, weeded by hand and treated with fertilizers, fungicide and insecticides when needed.
Their resistance against nematode infection was monitored and the efficacy of compounds described herein as a nematicide was measured. Furthermore the phytotoxicity of the test compounds was evaluated.
Efficacy of the compounds described herein as nematicide was measured by giving the roots a percentage of infestation measured as follows. Plants were grown to reach good development of the roots, which corresponds to plants grown to about 10 cm high at about one month after emergence. After removal of the soil from the roots by rinsing with water, the roots were visually inspected and root galls were counted on 4 plants of the set of 12 replicate plants.
Positive control plants were treated with a 10 micromolar concentration of oxamyl (Vydate, 10% SL; the rate of 10 micromolar corresponds to a commercial rate of 20 l/ha), a known nematicide. Negative controls involved double negative controls (no compound, sterile soil), and single negative controls (no compound, with nematode infested soil).

For a further series, the system named is Meloidogyne incognita. The series is described as follows: Root infestation on agar plate: root knot count on potato microplant roots. As to conditions: 60 μM in agar, galls counted 5 weeks after inoculation, four replicates. The method, then:
9 cm petri dishes were filled with a 15 ml agar. One stem cutting of a potato microplant (Solanum tuberosum cv. Desirée) was placed on top of the agar layer. After 2 to 3 weeks of incubation at 20° C., the root system was sufficiently developed to be inoculated.
The test compounds (see Table 1) were added 2 days before inoculation by way of spreading a 2 ml DMSO-solution with the compound over the agar and allowing the compound to diffuse in the agar during two days at constant temperature of 20° C. During incubation, the plates are protected from light in a dark incubator. The resulting concentration of each compound in each agar plate was 60 μM.
After incubation, approximately 400 axenic juveniles of Meloidogyne incognita species were added to the plate.
The plates were incubated in the dark at a constant temperature of 20° C. and 5 weeks after inoculation the number of galls formed on the roots were determined by counting. Also any toxic effect of the test compounds on the roots was recorded. 8 weeks after inoculation the plates were stored at low temperature.
Each compound was tested in four replicates. Positive controls were treated with different concentrations of Aldicarb, a known nematicide. Negative controls included 5 replicates of double negative controls (no compound, no nematode), 5 replicates of single negative controls (no compound, with nematode) and 5 replicates of DMSO controls (DMSO solution, with nematode).

A further series concerns tomato (cv. Rio Grande). The experiment in a line: Pot Assay 2: root development (vigor of roots) of tomato. As to conditions: visual value 0 to 10 (10 equal to control). The method, then:
Phytotoxicity of compounds as described herein when used as a nematicide, was measured as follows. […] At that moment, plant emergence was assessed for the plants treated with any of the compounds as described herein, by counting the number of plants per compound-concentration.
Vigor of roots was also assessed once the plants are well established so as not to loose plants. To assess vigor of the plants or roots, a visual value ranging from 0 to 10 (0 no vigor, 10 equal to control) was scored per compound-concentration.

The subject of series [1] is Meloidogyne incognita nematodes. The series is described as follows: Pot Assay 1: Meloidogyne infection of potato, egg masses/galls on roots. The settings on record: potato in pot, week 8 after inoculation. The method, then: 500 ml clay pots were filled with 400 ml of silver sand. One tuber of potato ( Solanum tuberosum cv. Bintje) was planted in the sand. After 2 to 3 weeks incubation, the potato plant was sufficiently developed to be inoculated.
Plants were grown under the usual standard greenhouse conditions at 14° C.-18° C., with 16 hours light and 8 hours dark and 80-90% relative humidity. The pots were watered using individual drippers and fertilizers were added under the form of macro- and micro nutrients according to plant growth requirements. When needed, the plants were sprayed with fungicides and insecticides.
The compounds as described herein were added one day before inoculation. The compounds were dissolved in a 20 ml DMSO-solution and spread over the sand surface. The final concentration is calculated under the assumption that the compound is diffused entirely in the pot. This process occurred during two days at the normal greenhouse conditions described above.
After compound incubation, approximately 1500 juveniles of Meloidogyne incognita nematodes were added to the pots.
The pots were incubated at the described greenhouse conditions until nematode development was completed. At week 8 after inoculation the number of galls formed on the roots was counted after washing off the sandy substrate. Also the effect of the compound on the plant development was recorded.
Every compound was tested in three replicates. Positive control plants were treated with different concentrations of aldicarb, a known nematicide. Negative controls involved 12 replicates of double negative controls (no compound, no nematode), 12 replicates of single negative controls (no compound, no DMSO, with nematode), 24 replicates of DMSO controls (DMSO solution, with nematode).
As assessment of the root development was taken into account.

In a further series the test system is Heterodera nematode. The series is described as follows: Pot Assay 3: Heterodera infection of sugar beet, crop vigor and crop height. The settings on record: Rate 0.05 mg; infested soil. An excerpt: The soil used in this assay originated from a Heterodera nematode infested sugar plot of which the infestation was confirmed by means of several soil analyses. Each pot was filled up with a soil mixture composed as follows: a) the infested soil was constituted by silt loam soil (about 600 g/pot) mixed with sterile peat (about 600 g/pot) and sterile cork (about 200 g/pot); b) the sterile soil was instead constituted only by sterile peat (1200 g/pot) and sterile cork (200 g/pot).
Each compound or compound mixture as described herein was tested in 4 different rates with 4 replicates per rate. One pot per replicate was used in which 18 beava sugar beet seeds (variety GEA (KWS)) were sown. After crop germination, the number of plants was reduced to 10 plants. The 4 rates added to the soil of the tested compounds or compound mixtures were 0.05 mg, 0.20 mg, 1 mg and 5 mg. These amounts translate to field application rates respectively as 30, 120, 600 and 3000 g per hectare.
Efficacy of the compounds described herein as nematicide was measured by visual inspection of the crop vigor and the crop height. The crop vigor evaluation is based on a 0-100 scale, where 0 is “no vigor” and 100 is “maximum vigor”. The crop height development is based on a measurement, in cm, per plant, excluding the root system.
Positive control plants were treated with Oxamyl (Vydate 5 G, 5% gr) at a rate of 40 kg fp per ha. Negative controls involved single negative controls (no compound, with nematode infested soil; referenced as “Untreated 1”) and double negative controls (no compound, sterile soil; referenced as “Untreated 2”).

Regarding `CC1COC(Cn2cncn2)(c2ccc(Oc3ccc(Cl)cc3)cc2Cl)O1` (mixture of isomers) [XLIX], the “% INF. (% Infestation)” value in the series with Meloidogyne nematodes (RATE 1 mg) is reported as 0.0%. The “Root knot count, average of the replicate counts” value (from here on “Root knot count, average”) in the series on Meloidogyne incognita is listed as 19.25. For the same molecule, in the series on tomato (cv. Rio Grande) (RATE 1 mg), the “ROOT DEV.” value came to 7.9. In series [1] (10 μM), the “number of egg masses (galls) on roots, Replicate 1” value is listed as 70; the “number of egg masses (galls) on roots, Replicate 2” value (shortened to “number of egg masses … Replicate 2”) worked out at 60; the “number of egg masses (galls) on roots, Replicate 3” value (“number of egg masses … Replicate 3” below) came to 40. For the same molecule, in series [1] (50 μM), the “number of egg masses … Replicate 2” value is 60 and the “number of egg masses … Replicate 3” value is given as 10.

With `COC(=O)c1sccc1S(=O)(=O)NC(=O)Nc1nc(C)nc(OC)n1` [XL], the “Root knot count, average” value with Meloidogyne incognita came to 0. Further, in the series with Heterodera nematode, the “crop height (cm)” value came out at 12 cm and the “crop vigor (max 100%)” value came out at 90%.

For `CCN(Cc1ccc(Cl)nc1)/C(=C/[N+](=O)[O-])NC` [XXIX], the “% INF. (% Infestation)” value in the series on Meloidogyne nematodes (RATE 0.05 mg) is given as 3.8%; in the series with Meloidogyne nematodes (RATE 0.2 mg), 1.3%; in the series on Meloidogyne nematodes (RATE 1 mg) it was 2.5%; in the series with Meloidogyne nematodes (RATE 5 mg), 5.0%. Further, the “Root knot count, average” value with Meloidogyne incognita was 17.5. For the same molecule, the “ROOT DEV.” value was found to be 7.9 in the series on tomato (cv. Rio Grande) (RATE 0.05 mg), 7.7 with tomato (cv. Rio Grande) (RATE 0.2 mg), 7.5 in the series on tomato (cv. Rio Grande) (RATE 1 mg) and 6.6 with tomato (cv. Rio Grande) (RATE 5 mg). Further, the “number of egg masses (galls) on roots, Replicate 1” value in series [1] (50 μM) is listed as 50. Further, in series [1] (50 μM), the “number of egg masses … Replicate 2” value worked out at 40. In addition, in series [1] (50 μM), the “number of egg masses … Replicate 3” value is listed as 40.

As to `CCCCOCCOCCOCc1cc2c(cc1CCC)OCO2` [XXXII], the “% INF. (% Infestation)” value with Meloidogyne nematodes (RATE 0.05 mg) was determined as 0.0%; in the series on Meloidogyne nematodes (RATE 0.2 mg), 0.0%; with Meloidogyne nematodes (RATE 1 mg), 1.3%; in the series with Meloidogyne nematodes (RATE 5 mg), 2.5%. The “Root knot count, average” value in the series with Meloidogyne incognita is on record as 19.25. For the same molecule, the “ROOT DEV.” value stood at 6.5 in the series with tomato (cv. Rio Grande) (RATE 0.05 mg), 7.6 in the series with tomato (cv. Rio Grande) (RATE 0.2 mg), 7.6 in the series on tomato (cv. Rio Grande) (RATE 1 mg) and 6.7 in the series with tomato (cv. Rio Grande) (RATE 5 mg).

For `COc1ccc(/C(=C/C(=O)N2CCOCC2)c2ccc(Cl)cc2)cc1OC` [X], the figures for the “% INF. (% Infestation)” value with Meloidogyne nematodes (RATE 0.05 mg) and in the series on Meloidogyne nematodes (RATE 0.2 mg) were 5.0% and 1.3%, respectively. Moreover, in the series on Meloidogyne incognita, the “Root knot count, average” value came out at 10.5. For the same molecule, the “ROOT DEV.” value in the series on tomato (cv. Rio Grande) (RATE 0.05 mg) was determined as 6.8; with tomato (cv. Rio Grande) (RATE 0.2 mg), 7.9.
